Earlier results on two substances are cited in patent publication US20100331966A1, “BIOCORRODIBLE IMPLANT HAVING AN ACTIVE COATING” (priority 2009, published 2010).

The series has as its system hyperlipidemic rabbits.
The mark [1] stands for this setting: hyperlipidemic rabbits, repeated administration.

Take “hyaluronate lyase [bacteria hyaluronate lyase]”: under “rabbit, in vivo”, the plaque-loosening effect result was “confirmed”.

On to hyaluronidase, for which, under setting [1], the atheromatous vascular plaque entry is reported as “significant decrease”, the blood cholesterol entry is given as “lowering”, the fibrin content result is “lowering” and the “heparin content in the plasma” value was “increase”. The “vascular permeability in the tissue” value under setting [1] is on record as “increased”.
